Data taken from patent US20240148821A1, “PHARMACEUTICAL USE OF CYCLIC PEPTIDE COMPOUND” (CHUGAI SEIYAKU KABUSHIKI KAISHA, priority 2021, published 2024).
Bridge positions count the residues as written; N and C are the ends. Square brackets hold non-standard residues; d marks the D form. Peptide text beside a SMILES is read from it. * marks the point of attachment. hPhe(3,5-F2-4-CF3) = N[C@@H](CCc1cc(F)c(C(F)(F)F)c(F)c1)C(=O)O; hPhe(3-Cl-4-CF3) = N[C@@H](CCc1ccc(C(F)(F)F)c(Cl)c1)C(=O)O; hPhe(3-F,4-CF3) = N[C@@H](CCc1ccc(C(F)(F)F)c(F)c1)C(=O)O; hPhe(4-CF3) = N[C@@H](CCc1ccc(C(F)(F)F)cc1)C(=O)O; 3Oxa8azabicyclo(3.2.1)octane = C1CC2COCC1N2*; NMePhe(4-Cl) = CN[C@@H](Cc1ccc(Cl)cc1)C(=O)O; NMePhe(4-Me) = CN[C@@H](Cc1ccc(C)cc1)C(=O)O; NMeAla(cPent) = CN[C@@H](CC1CCCC1)C(=O)O; NMeGly(cPent) = CN[C@H](C(=O)O)C1CCCC1; NMeCha = CN[C@@H](CC1CCCCC1)C(=O)O; cisHyp = O=C(O)[C@@H]1C[C@H](O)CN1; NMehLeu = CN[C@@H](CCC(C)C)C(=O)O; NEtLeu = CCN[C@@H](CC(C)C)C(=O)O; NMeChg = CN[C@H](C(=O)O)C1CCCCC1; NMeF = CN[C@@H](Cc1ccccc1)C(=O)O; NMeI = CC[C@H](C)[C@H](NC)C(=O)O; Piperidide(4-Me) = CC1CCN(*)CC1; NMeD = CN[C@@H](CC(=O)O)C(=O)O; NMeL = CN[C@@H](CC(C)C)C(=O)O; NMeV = CN[C@H](C(=O)O)C(C)C; d(β3hA) = C[C@@H](N)CC(=O)O; NMeS = CN[C@@H](CO)C(=O)O; Morpholide = C1CN(*)CCO1; NMeA = CN[C@@H](C)C(=O)O; Piperidide = C1CCN(*)CC1; Ac5c = NC1(C(=O)O)CCCC1; Aze = O=C(O)[C@@H]1CCN1; X53 = CC1(C)CCN(*)C1; NEtG = CCNCC(=O)O; Sar = CNCC(=O)O; Propyl = CCC*

What follows are compounds tested against protein-protein interaction between Kras and SOS1 (biotin-tagged human Kras loaded with GDP, His-tagged human SOS1) (Homo sapiens (Human), UniProt P01116, G12D) (assay: Protein-protein interaction inhibition between Kras and SOS1 (KrasG12D-SOS PPI) using AlphaScreen). Conditions: AlphaScreen; biotin-tagged human Kras loaded with GDP, His-tagged human SOS1; read-out: KRAS G12D-SOS PPI IC50.
Type: biochemical

Structure (SMILES)	IC50 [nM]
CC[C@H](C)[C@@H]1NC(=O)[C@H](CC(C)C)N(CC)C(=O)C[C@@H](C(=O)N2CCOCC2)N(C)C(=O)[C@H](C2CCCC2)N(C)C(=O)C2(CCCC2)NC(=O)[C@@H]2CCCN2C(=O)[C@H](CCc2ccc(C(F)(F)F)c(Cl)c2)NC(=O)CN(C)C(=O)[C@H](CC2CCCCC2)N(C)C(=O)[C@@H]2CCN2C(=O)[C@H](C)NC1=O [Compound 1266] ([NEtLeu]IA[Aze][NMeCha][Sar][hPhe(3-Cl-4-CF3)]P[Ac5c][NMeGly(cPent)][NMeD]-Morpholide; lactam N-11)	1.2
CC[C@H](C)[C@@H]1NC(=O)[C@H](CC(C)C)N(C)C(=O)C[C@@H](C(=O)N2CCC(C)(C)C2)NC(=O)[C@H](C(C)C)N(C)C(=O)C2(CCCC2)NC(=O)[C@@H]2CCCN2C(=O)[C@H](CCc2ccc(C(F)(F)F)c(Cl)c2)NC(=O)CN(C)C(=O)[C@H](CC2CCCCC2)N(C)C(=O)[C@@H]2CCN2C(=O)[C@H](C)N(C)C1=O [Compound 1280] ([NMeL]I[NMeA][Aze][NMeCha][Sar][hPhe(3-Cl-4-CF3)]P[Ac5c][NMeV]D-X53; lactam N-11)	74
CC[C@H](C)[C@@H]1NC(=O)[C@H](CC(C)C)N(CC)C(=O)C[C@@H](C(=O)N(C)C)N(C)C(=O)[C@H]([C@@H](C)CC)N(C)C(=O)C2(CCCC2)NC(=O)[C@@H]2CCCN2C(=O)[C@H](CCc2ccc(C(F)(F)F)c(Cl)c2)NC(=O)CN(C)C(=O)[C@H](Cc2ccc(C)cc2)N(C)C(=O)[C@@H]2CCN2C(=O)[C@H](C)NC1=O [Compound 1287] ([NEtLeu]IA[Aze][NMePhe(4-Me)][Sar][hPhe(3-Cl-4-CF3)]P[Ac5c][NMeI][NMeD]-NMe2; lactam N-11)	1.1
CC[C@H](C)[C@@H]1NC(=O)[C@H](CC(C)C)N(C)C(=O)C[C@@H](C(=O)N2CCC(C)CC2)N(C)C(=O)[C@H](C(C)C)N(C)C(=O)C2(CCCC2)NC(=O)[C@@H]2CCCN2C(=O)[C@H](CCc2ccc(C(F)(F)F)c(Cl)c2)NC(=O)CN(C)C(=O)[C@H](CC2CCCCC2)N(C)C(=O)[C@@H]2CCN2C(=O)[C@H](C)N(C)C1=O [Compound 1291] ([NMeL]I[NMeA][Aze][NMeCha][Sar][hPhe(3-Cl-4-CF3)]P[Ac5c][NMeV][NMeD]-{Piperidide(4-Me)}; lactam N-11)	5.4
CC[C@H](C)[C@@H]1NC(=O)[C@H](CCC(C)C)N(C)C(=O)C[C@@H](C(=O)N(C)C)N(C)C(=O)[C@H](C2CCCC2)N(C)C(=O)C2(CCCC2)NC(=O)[C@@H]2CCCN2C(=O)[C@H](CCc2ccc(C(F)(F)F)c(F)c2)NC(=O)CN(C)C(=O)[C@H](CC2CCCCC2)N(C)C(=O)[C@@H]2CCN2C(=O)[C@H](C)NC1=O [Compound 1292] ([NMehLeu]IA[Aze][NMeCha][Sar][hPhe(3-F,4-CF3)]P[Ac5c][NMeGly(cPent)][NMeD]-NMe2; lactam N-11)	2
CCCOC[C@H]1C(=O)N(C)CC(=O)N[C@@H](CCc2ccc(C(F)(F)F)c(Cl)c2)C(=O)N2CCC[C@H]2C(=O)NC2(CCCC2)C(=O)N(C)[C@@H](C2CCCC2)C(=O)N(C)[C@H](C(=O)N2C3CCC2COC3)CC(=O)N(C)[C@@H](CC(C)C)C(=O)N[C@@H]([C@@H](C)CC)C(=O)N[C@@H](C)C(=O)N2CC[C@H]2C(=O)N1C [Compound 1299] ([NMeL]IA[Aze][NMeS](Propyl)[Sar][hPhe(3-Cl-4-CF3)]P[Ac5c][NMeGly(cPent)][NMeD]-{3Oxa8azabicyclo(3.2.1)octane}; lactam N-11)	3.6
CC[C@H](C)[C@@H]1NC(=O)[C@H](CC(C)C)N(C)C(=O)C[C@@H](C(=O)N2CCOCC2)N(C)C(=O)[C@H](C2CCCC2)N(C)C(=O)C2(CCCC2)NC(=O)[C@@H]2CCCN2C(=O)[C@H](CCc2ccc(C(F)(F)F)c(Cl)c2)NC(=O)CN(C)C(=O)[C@H](C2CCCC2)N(C)C(=O)[C@@H]2CCN2C(=O)[C@H](C)NC1=O [Compound 1309] ([NMeL]IA[Aze][NMeGly(cPent)][Sar][hPhe(3-Cl-4-CF3)]P[Ac5c][NMeGly(cPent)][NMeD]-Morpholide; lactam N-11)	0.85
CCCOC[C@H]1C(=O)N(C)CC(=O)N[C@@H](CCc2ccc(C(F)(F)F)c(Cl)c2)C(=O)N2CCC[C@H]2C(=O)NC2(CCCC2)C(=O)N(C)[C@@H](C2CCCC2)C(=O)N(C)[C@H](C(=O)N2C3CCC2COC3)CC(=O)N(C)[C@@H](CCC(C)C)C(=O)N[C@@H]([C@@H](C)CC)C(=O)N[C@@H](C)C(=O)N2CC[C@H]2C(=O)N1C [Compound 1326] ([NMehLeu]IA[Aze][NMeS](Propyl)[Sar][hPhe(3-Cl-4-CF3)]P[Ac5c][NMeGly(cPent)][NMeD]-{3Oxa8azabicyclo(3.2.1)octane}; lactam N-11)	5.1
CC[C@H](C)[C@@H]1NC(=O)[C@H](CC(C)C)N(C)C(=O)C[C@@H](C)NC(=O)[C@H](C2CCCC2)N(C)C(=O)C2(CCCC2)NC(=O)[C@@H]2CCCN2C(=O)[C@H](CCc2ccc(C(F)(F)F)c(Cl)c2)NC(=O)CN(C)C(=O)[C@H](Cc2ccc(C)cc2)N(C)C(=O)[C@@H]2CCN2C(=O)[C@H](C)NC1=O [Compound 1331] (cyclo(A[Aze][NMePhe(4-Me)][Sar][hPhe(3-Cl-4-CF3)]P[Ac5c][NMeGly(cPent)][d(β3hA)][NMeL]I))	1.1
CC[C@H](C)[C@@H]1NC(=O)[C@H](CC(C)C)N(C)C(=O)C[C@@H](C(=O)N2CCCCC2)N(C)C(=O)[C@H](C(C)C)N(C)C(=O)C2(CCCC2)NC(=O)[C@@H]2CCCN2C(=O)[C@H](CCc2ccc(C(F)(F)F)c(Cl)c2)NC(=O)CN(C)C(=O)[C@H](CC2CCCCC2)N(C)C(=O)[C@@H]2CCN2C(=O)[C@H](C)NC1=O [Compound 1334] ([NMeL]IA[Aze][NMeCha][Sar][hPhe(3-Cl-4-CF3)]P[Ac5c][NMeV][NMeD]-Piperidide; lactam N-11)	3
CCCOC[C@H]1C(=O)N(CC)CC(=O)N[C@@H](CCc2ccc(C(F)(F)F)c(Cl)c2)C(=O)N2CCC[C@H]2C(=O)NC2(CCCC2)C(=O)N(C)[C@@H](C2CCCC2)C(=O)N(C)[C@H](C(=O)N2C3CCC2COC3)CC(=O)N(C)[C@@H](CC(C)C)C(=O)N[C@@H]([C@@H](C)CC)C(=O)N(C)[C@@H](C)C(=O)N2CC[C@H]2C(=O)N1C [Compound 1338] ([NMeL]I[NMeA][Aze][NMeS](Propyl)[NEtG][hPhe(3-Cl-4-CF3)]P[Ac5c][NMeGly(cPent)][NMeD]-{3Oxa8azabicyclo(3.2.1)octane}; lactam N-11)	17
CC[C@H](C)[C@@H]1NC(=O)[C@H](CC2CCCC2)N(C)C(=O)C[C@@H](C(=O)N(C)C)N(C)C(=O)[C@H](C2CCCC2)N(C)C(=O)C2(CCCC2)NC(=O)[C@@H]2CCCN2C(=O)[C@H](CCc2ccc(C(F)(F)F)c(F)c2)NC(=O)CN(C)C(=O)[C@H](CC2CCCCC2)N(C)C(=O)[C@@H]2CCN2C(=O)[C@H](C)NC1=O [Compound 1340] ([NMeAla(cPent)]IA[Aze][NMeCha][Sar][hPhe(3-F,4-CF3)]P[Ac5c][NMeGly(cPent)][NMeD]-NMe2; lactam N-11)	1.2
CC[C@H](C)[C@@H]1NC(=O)[C@H](CC(C)C)N(C)C(=O)C[C@@H](C(=O)N2CCCCC2)NC(=O)[C@H](C(C)C)N(C)C(=O)C2(CCCC2)NC(=O)[C@@H]2CCCN2C(=O)[C@H](CCc2ccc(C(F)(F)F)c(Cl)c2)NC(=O)CN(C)C(=O)[C@H](CC2CCCCC2)N(C)C(=O)[C@@H]2CCN2C(=O)[C@H](C)N(C)C1=O [Compound 1353] ([NMeL]I[NMeA][Aze][NMeCha][Sar][hPhe(3-Cl-4-CF3)]P[Ac5c][NMeV]D-Piperidide; lactam N-11)	11
CCCOC[C@H]1C(=O)N(C)CC(=O)N[C@@H](CCc2cc(F)c(C(F)(F)F)c(F)c2)C(=O)N2CCC[C@H]2C(=O)NC2(CCCC2)C(=O)N(C)[C@@H](C2CCCC2)C(=O)N(C)[C@H](C(=O)N2C3CCC2COC3)CC(=O)N(C)[C@@H](CC(C)C)C(=O)N[C@@H]([C@@H](C)CC)C(=O)N(C)[C@@H](C)C(=O)N2CC[C@H]2C(=O)N1C [Compound 1355] ([NMeL]I[NMeA][Aze][NMeS](Propyl)[Sar][hPhe(3,5-F2-4-CF3)]P[Ac5c][NMeGly(cPent)][NMeD]-{3Oxa8azabicyclo(3.2.1)octane}; lactam N-11)	3.2
CCCOC[C@H]1C(=O)N(C)CC(=O)N[C@@H](CCc2ccc(C(F)(F)F)c(Cl)c2)C(=O)N2CCC[C@H]2C(=O)NC2(CCCC2)C(=O)N(C)[C@@H](C2CCCC2)C(=O)N(C)[C@H](C(=O)N2C3CCC2COC3)CC(=O)N(C)[C@@H](CC2CCCC2)C(=O)N[C@@H]([C@@H](C)CC)C(=O)N[C@@H](C)C(=O)N2CC[C@H]2C(=O)N1C [Compound 1359] ([NMeAla(cPent)]IA[Aze][NMeS](Propyl)[Sar][hPhe(3-Cl-4-CF3)]P[Ac5c][NMeGly(cPent)][NMeD]-{3Oxa8azabicyclo(3.2.1)octane}; lactam N-11)	6.2
CC[C@H](C)[C@@H]1NC(=O)[C@H](C)N(C)C(=O)C[C@@H](C)NC(=O)[C@H](CC(C)C)N(C)C(=O)[C@H](Cc2ccccc2)N(C)C(=O)[C@@H]2C[C@H](O)CN2C(=O)[C@H](CCc2ccc(C(F)(F)F)cc2)NC(=O)CN(C)C(=O)[C@H](Cc2ccc(Cl)cc2)N(C)C(=O)CN(C)C(=O)CN(C)C1=O [Compound 1373] (cyclo(I[Sar][Sar][NMePhe(4-Cl)][Sar][hPhe(4-CF3)][cisHyp][NMeF][NMeL][d(β3hA)][NMeA]))	7.7
CC[C@H](C)[C@@H]1NC(=O)[C@H](CC(C)C)N(C)C(=O)C[C@@H](C(=O)N2CCCCC2)N(C)C(=O)[C@H](C2CCCCC2)N(C)C(=O)C2(CCCC2)NC(=O)[C@@H]2C[C@H](O)CN2C(=O)[C@H](CCc2ccc(C(F)(F)F)c(Cl)c2)NC(=O)CN(C)C(=O)[C@H](CC2CCCCC2)N(C)C(=O)CN(C)C(=O)CN(C)C1=O [Compound 1374, (3S,9S,18S,21S,25S,28S,34S,36S)-3-[2-[3-chloro-4-(trifluoromethyl)phenyl]ethyl]-28-cyclohexyl-9-(cyclohexylmethyl)-36-hydroxy-21-isobutyl-7,10,13,16,22,26,29-heptamethyl-18-[(1S)-1-methylpropyl]-25-(piperidine-1-carbonyl)spiro[1,4,7,10,13,16,19,22,26,29,32-undecazabicyclo[32.3.0]heptatriacontane-31,1′-cyclopentane]-2,5,8,11,14,17,20,23,27,30,33-undecone] ([NMeL]I[Sar][Sar][NMeCha][Sar][hPhe(3-Cl-4-CF3)][cisHyp][Ac5c][NMeChg][NMeD]-Piperidide; lactam N-11)	0.54
